From article PMC10515483, “Structure–Reactivity Studies of 2-Sulfonylpyrimidines Allow Selective Protein Arylation” (Bioconjugate Chemistry, 2023)
In brackets after ≈: the same amount, converted by molar mass. Entries after “also recorded” stand apart in the source; their conditions may differ.

Tests used:
[1] = Solubility in KPi buffer by NMR with TMSP internal standard; settings: 50 mM KPi aqueous buffer, pH 7, aqueous with cosolvent or surfactant or cyclodextrin, kinetic from dmso stock
Protocol: Stability and solubility assays
transferred to the NMR instrument for acquisition. 1H spectra (16 scans) were recorded every 10 minutes under water suppression conditions. Following acquisition, spectra were analysed using
TopSpin. Normalised integrations of the pyrimidine aromatic 1H signals in the starting material and
product were plotted as a function of time (s), using the TMSP peak as standard for integral
calibration/normalisation and monitoring of compound solubility, allowing extraction of pseudo first
order reaction rate constants (k’). Second order rate constants (k) were back calculated from the ratio
of the pseudo first counterparts and the concentration of thiol in solution.
was confirmed by formation of a single S-arylated product (characteristic 2-alkylthioether signals),
concomitant with formation of the sulfinic acid by -product (leaving group). Hydrolytic stability
assessment was performed at pH 7.0 and pH 8.2 in a similar manner, in the absence of thiol.
Chemoselectivity. Similarly, but replacing GSH by other amino acids , reference 2-
methylsulfonylpyrimidine 4q in 50 mM KPi (pH 8.2) was incubated with 10 equivalents of either Boc-
Lys-OH, L-ser-OMe, N-Ac-Tyr-OH or Proline were used.

[2] = GSH arylation rate constants (NMR; UV-vis for fast warheads); type: physicochemical; settings: for k: Table S8, rate constants obtained at pH = 7; for k/kref / ΔΔG≠1exp: relative to 4q; for ΔΔG≠1exp: via -RTln(k/kref)
Excerpt: We employed nuclear magnetic resonance (NMR) and UV–vis to quantify the reactivity of our 2-SP derivatives and other representative electrophiles (Figure 2) against cysteine. NMR allowed straightforward determination of reaction rate constants through dual monitoring of the consumption of the warhead and formation of the product by integration of their respective NMR signals (Figures S1–S3). It simultaneously provided a direct readout on reaction specificity and hydrolytic stability of the warhead. All measurements were carried out in KPi buffer in the presence of 5% d^6-dmso, which is generally well-tolerated by a wide range of proteins in in vitro studies. N-acetylcysteine methylester (NACME) and L-glutathione (GSH) are useful model cysteine nucleophiles for in vitro studies of electrophilic agents.[32] Mixing reference electrophile 2-methylsulfonylpyrimidine (4q) with NACME or GSH in a 1:10 ratio (pseudo-first-order conditions) allowed extraction of accurate and reproducible second order rate constants (k).
Figure 3 In vitro determination of electrophilic reactivity of compounds. (A) NMR assay setup for warhead/GSH reaction rate constant determination and chemoselectivity monitoring, over a 6 h time scale. Purple bead = GSH. Hydrolytic stability was determined in the same way over 36 h. d^4-Trimethylsilylpropanoate (TMSP, blue box) was used as an internal standard for monitoring the warhead solubility. Second-order reaction rate constants (k) were obtained from their pseudo-first-order counterparts (k′), by time-dependent normalized integration of the disappearing warhead signals. […] (B) Experimental second-order rate constants (y axis, log10 scale) for the reaction of representative 2-SP derivatives (left, 11 out of ca. 40 examples) and previously reported heteroarylsulfones (right) with GSH in a KPi buffer, pH 7.0, 20 °C. All rate constants were calculated as an average of at least two independent measurements. Numerical values and standard deviations at both pH 7.0 and 6.5, along with a full list of 2-SPs and other electrophile types tested, are presented in Tables S2–S6 and Figure S4. The horizontal dashed line marks the reaction rate of 2-methylsulfonylpyrimidine at pH 7.0, as a reference when comparing with other reagents (see main text).
To establish an accurate structure–reactivity profile of 2-SP reagents, we systematically determined their reaction rate constants for the arylation of GSH by NMR, at pH 7.0 and 6.5. This was a prerequisite to (i) quantify the influence of substitution on reaction rates; (ii) accurately assess the tunability and chemoselectivity of 2-SPs for cysteine arylation; (iii) determine the influence of pH on the reaction rates to further inform on the precise reaction mechanism; and (iv) benchmark the overall performance of 2-SPs with those of previously reported fast reacting heteroarylsulfones and other common cysteine reactive warheads (Figure 2C,D).

β-catenin ARD = molecular target: T1, β-catenin ARD (Homo sapiens, UniProt P35222); experiment: Differential scanning fluorimetry (DSF); type: binding; settings: 100 μM compound; 8 µM β-cat; read-out: Protein thermal stability ΔTm
T1 construct: vector pLipK-ARD (residues 150 – 662) was used; 6xHis-Lip (6xHis, lipoyl domain); made in house; host or cells: E. coli BL21(DE3) pRARE2
T1 sequence (P35222 150-662): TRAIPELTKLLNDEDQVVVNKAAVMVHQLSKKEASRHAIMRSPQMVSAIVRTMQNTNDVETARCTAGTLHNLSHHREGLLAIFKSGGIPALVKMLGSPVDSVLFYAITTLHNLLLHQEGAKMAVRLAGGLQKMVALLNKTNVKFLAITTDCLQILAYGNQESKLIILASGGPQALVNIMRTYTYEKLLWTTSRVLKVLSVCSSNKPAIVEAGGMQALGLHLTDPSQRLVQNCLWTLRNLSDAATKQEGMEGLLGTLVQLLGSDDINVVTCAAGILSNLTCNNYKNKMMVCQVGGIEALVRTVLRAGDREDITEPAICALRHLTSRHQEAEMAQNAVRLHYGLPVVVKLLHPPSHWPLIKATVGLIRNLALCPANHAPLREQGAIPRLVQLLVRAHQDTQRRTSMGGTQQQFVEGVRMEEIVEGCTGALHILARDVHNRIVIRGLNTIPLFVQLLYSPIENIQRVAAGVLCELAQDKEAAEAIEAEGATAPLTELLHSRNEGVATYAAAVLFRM
Excerpt: We also probed the general effect of 2-SPs on protein stability by using differential scanning fluorimetry (DSF). […] Mutants of the 25 kDa DNA-binding domain of the tumor suppressor p53 are notorious for their reduced thermal stability and denaturation/aggregation propensity.[37] The 56 kDa armadillo domain (ARD) of β-catenin mediates canonical Wnt signaling and plays a central role in embryogenesis and tissue homeostasis.[38] FGE (37 kDa) is the only known activator of human sulfatases, and its stability is susceptible to modification of its cysteines.[39] […]
Human β-catenin armadillo domain. β-catenin sequence was amplified by PCR (KOD DNA polymerase, Merck Millipore) from plasmid templates and cloned into bacterial expression vectors by restriction - free cloning. All plasmids were verified by sequencing. For protein pro duction, bacterial expression vector pLipK-ARD (residues 150 – 662) was used. 6xHis-Lip-tagged recombinant proteins were purified from BL21(DE3) pRARE2 E. coli bacterial strains. Bacteria were grown in LB media supplemented with appropriate antibiotic to OD600 0.6, then dropped to a lower temperature (16 – 24 °C) and induced at OD600 0.8 by addition of 0.4 mM isopropyl β -D-1-thiogalactopyranoside (IPTG). Proteins were expressed overnight and bacteria were subsequently harvested by centrifugation, cell pelle ts shock-frozen in liquid nitrogen and stored at -80°C until use. Cell pellets were re -suspended in lysis buffer (25 mM Tris -HCl pH 8, 200 mM NaCl, 20 mM imidazole, 10 μg/mL DNAse, EDTA -free protease inhibitor cocktail) and lysed with an Emulsiflex C-3 (Avestin). Lysates were cleared by ultracentrifugation (140,000x rcf, 30 minutes, 4°C) and mixed with Ni-NTA agarose. Beads were washed multiple times with lysis buffer, and 6xHisLip - tagged protein was eluted with lysis buffer supplemented with 500 mM imidazo le. The protein was further purified by SEC on a HiPrep26/60 G200 (GE Healthcare) into the final buffer of 200 mM NaCl, 25 mM Tris pH 7.4, 0.06% NaN3, 1 mM DTT, and protein purity was assessed by SDS -PAGE. Pure protein fractions were concentrated using a 1 0 kDa MWCO Vivaspin 20 concentrator (Sartorius) to 17 – 28 mg/mL, then shock frozen as droplets in liquid nitrogen and stored at -80°C until use. […]

[3] = pH 6.5, by NMR, KPi buffer, 5% DMSO-d6
[4] = pH 7.0, by NMR, KPi buffer, 5% DMSO-d6
[5] = pH 7.0, ratio to rate constant of 4q, acceleration (+) or deceleration (-)
[6] = pH 6.5, measured by UV titrations
[7] = pH 7.0, measured by UV titrations
[8] = pH 7.0, ratio to 4q, from value measured by UV titrations (footnote a)

| SMILES | solubility [1] [µM] | ΔTm at 100 µM (β-catenin ARD) [°C] | k [2] [M⁻¹ s⁻¹] | rate constant (k) for the reaction with GSH [2, 3] [M⁻¹ s⁻¹] | rate constant (k) for the reaction with GSH [2, 4] [M⁻¹ s⁻¹] | k change (vs ref) [2, 5] | k/kref [2] | ΔΔG≠1exp [2] [kcal/mol] | rate constant (k) for the reaction with GSH [2, 6] [M⁻¹ s⁻¹] | second order rate constant k with GSH ([2]; pH 7.0, KPi buffer) | rate constant (k) for the reaction with GSH [2, 7] [M⁻¹ s⁻¹] | k change (vs ref) [2, 8] | times faster at pH 7.0 vs 6.5 ([2]; GSH) | times slower with GSH than with NACME ([2]; pH 7.0) |
| --- | --- | --- | --- | --- | --- | --- | --- | --- | --- | --- | --- | --- | --- | --- |
| CS(=O)(=O)c1nccc(C(=O)O)n1 [4d] | ≥ 2000 | -0.1 ± 0.1 | 0.0050 | 0.0015 | 0.005 | -5 fold | 0.20 | 0.956 | – | – | – | – | – | – |
| CS(=O)(=O)c1nccc(C(F)(F)F)n1 [4l] | ≥ 2000 | -1.7 ± 0.4 | 21 | – | – | – | 840 | -4.06 | 4.9 ± 0.48 | ≈ 21 M^–1 s^–1 | 21 ± 0.6 | +840 fold | – | – |
| Cc1cc(C)nc(S(C)(=O)=O)n1 [4a] | ≥ 2000 | -0.1 ± 0.1 | 0.0010 | 0.00038 ± 8e-05 | 0.001 | -25 fold | 0.040 | 1.91 | – | – | – | – | – | – |
| CS(=O)(=O)c1ncc(Br)cn1 [4t] | ≥ 2000 | -0.7 ± 0.1 | 0.29 | 0.056 ± 0.034 | 0.29 ± 0.25 | +12 fold | 12 | -1.46 | – | – | – | – | – | – |
| CS(=O)(=O)c1ncc(I)cn1 [4u] | ≥ 2000 | -0.1 ± 0.1 | – | 0.025 ± 0.01 | 0.66 ± 0.01 | +26 fold | – | – | – | – | – | – | – | – |
| CS(=O)(=O)c1nccc(-c2ccccc2)n1 [4e] | < 2000 | -0.1 ± 0.1 | – | 0.002 ± 0.0005 | 0.005 | -5 fold | – | – | – | – | – | – | – | – |
| COc1cc(OC)nc(S(C)(=O)=O)n1 [4f, 4,6-dimethoxy-2-methylsulfonylpyrimidine] | ≥ 2000 | -0.1 ± 0.1 | 0.010 | 0.003 ± 0.0005 | 0.01 | -3 fold | 0.40 | 0.55 | – | – | – | – | – | – |
| CS(=O)(=O)c1ncccn1 [4q, 2-methylsulfonylpyrimidine] | ≥ 2000 | -0.1 ± 0.1 | 0.0250 | 0.004 ± 0.0016 | 0.025 ± 0.014 | – | 1 | 0 | – | ≈ 1.6 × 10^–2 M^–1 s^–1; also recorded: ≈ 1.2 × 10^–2 M^–1 s^–1 | – | – | approximately 5 times | approximately 3 times |
| CS(=O)(=O)c1nccc(N)n1 [4g] | ≥ 2000 | -0.1 ± 0.1 | 0.023 | 0.032 ± 0.006 | 0.023 ± 0.003 | ≈ | 0.92 | 0.0502 | – | – | – | – | – | – |
| CS(=O)(=O)c1ncc(C(F)(F)F)cn1 [4x] | ≥ 2000 | -3.1 ± 0.6 | 1900 | – | – | +76,000 fold | 76000 | -6.69 | – | – | – | – | – | – |
| Cc1ccnc(S(C)(=O)=O)n1 [4c] | ≥ 2000 | -0.1 ± 0.1 | 0.0043 | 0.0015 ± 0.0005 | 0.0043 ± 0.0008 | -6 fold | 0.17 | 1.05 | – | – | – | – | – | – |
| CS(=O)(=O)c1ncc(Br)c(C(=O)O)n1 [4i] | – | -0.1 ± 0.1 | – | 0.075 ± 0.035 | 0.3 ± 0.013 | +12 fold | – | – | 0.15 ± 0.09 | – | 0.64 ± 0.009 | +26 fold | – | – |
| CS(=O)(=O)c1nccc(C(N)=O)n1 [4j] | – | -0.3 ± 0.3 | – | 0.095 ± 0.015 | 0.3 ± 0.0025 | +12 fold | – | – | – | – | – | – | – | – |

More lines, main results first:

| solubility [1] [µM] | ΔTm at 100 µM (β-catenin ARD) [°C] | SMILES | k [2] [M⁻¹ s⁻¹] | rate constant (k) for the reaction with GSH [2, 3] [M⁻¹ s⁻¹] | rate constant (k) for the reaction with GSH [2, 4] [M⁻¹ s⁻¹] | k change (vs ref) [2, 5] | k/kref [2] | ΔΔG≠1exp [2] [kcal/mol] | rate constant (k) for the reaction with GSH [2, 6] [M⁻¹ s⁻¹] | second order rate constant k with GSH ([2]; pH 7.0, KPi buffer) | rate constant (k) for the reaction with GSH [2, 7] [M⁻¹ s⁻¹] | k change (vs ref) [2, 8] | times faster at pH 7.0 vs 6.5 ([2]; GSH) | times slower with GSH than with NACME ([2]; pH 7.0) |
| --- | --- | --- | --- | --- | --- | --- | --- | --- | --- | --- | --- | --- | --- | --- |
| ≥ 2000 | -6.9 ± 1 | O=S(=O)(CC(F)(F)F)c1ncccn1 [5e] | 0.23 | 0.04 ± 0.005 | 0.23 ± 0.05 | +9 fold | 9.2 | -1.29 | – | – | – | – | – | – |
| 100 (≈ 26.5 µg/mL) | -0.1 ± 0.1 | O=[N+]([O-])c1ccc(S(=O)(=O)c2ncccn2)cc1 [5f] | 0.29 | – | – | +12 fold | 12 | -1.46 | 0.2 ± 0.09 | – | 0.29 ± 0.17 | – | – | – |
| ≥ 2000 | -0.1 ± 0.1 | O=S(=O)(c1ccccc1)c1ncccn1 [5d] | 0.035 | 0.01 ± 0.005 | 0.035 ± 0.015 | ≈ | 1.4 | -0.198 | – | – | – | – | – | – |
| ≥ 2000 | 0.3 ± 0.3 | O=S(=O)(NCc1ccccc1)c1ncccn1 [5g] | – | 0.00015 ± 5e-05 | 0.0004 ± 0.0001 | -63 fold | – | – | – | – | – | – | – | – |
| ≥ 2000 | -0.1 ± 0.1 | CCCCS(=O)(=O)c1ncccn1 [5c] | – | 0.0028 ± 0.0003 | 0.01 | -3 fold | – | – | – | – | – | – | – | – |
